According to ChEMBL document CHEMBL1128625, “Synthesis and antibacterial activity of cephalosporins having C-3 catechol-containing (pyridinium-4-thio)-methyl groups” (1995):
Converted amounts (≈) assume the structure as drawn.

Legend:
[1] = test system: Pseudomonas aeruginosa; assay: In vitro antibacterial activity against Pseudomonas aeruginosa NCTC-10490 bacteria; type: functional
[2] = test system: Staphylococcus aureus; assay: In vitro antibacterial activity against Staphylococcus aureus FDA 209P bacteria; type: functional
[3] = test system: Pseudomonas aeruginosa; assay: In vitro antibacterial activity against Pseudomonas aeruginosa ATCC 10145 bacteria; type: functional
[4] = test system: Escherichia coli; assay: In vitro antibacterial activity against Escherichia coli NIHJ JC-2 bacteria; type: functional
[5] = organism: Mus musculus; assay: Challenged dose in mouse infected with Pseudomonas aeruginosa E-2; type: functional
[6] = test system: Mus musculus; assay: In vivo therapeutic efficacy against systemic infections in mice using Pseudomonas aeruginosa E-2 as a test organism; type: functional
[7] = test system: Pseudomonas aeruginosa; assay: In vivo therapeutic efficacy against systemic infections in mice using Pseudomonas aeruginosa E-2 as a test organism
[8] = test system: Mus musculus; assay: In vivo therapeutic efficacy against systemic infections in mice using Pseudomonas aeruginosa E-2 as a test organism.; type: functional

| SMILES | MIC [1] | MIC [2] | MIC [3] | MIC [4] | Challenge dose [5] | ED50 [6] | MIC [7] | ED50 [8] | MIC [8] |
| --- | --- | --- | --- | --- | --- | --- | --- | --- | --- |
| CC(C)(O/N=C(\C(=O)N[C@@H]1C(=O)N2C(C(=O)[O-])=C(CSc3cc[n+](Cc4cc(O)c(O)cn4)cc3)CS[C@H]12)c1csc(N)n1)C(=O)O | 0.05 µg/mL (≈ 0.0712 µM) | 6.25 µg/mL (≈ 8.91 µM) | 0.39 µg/mL (≈ 0.556 µM) | 0.78 µg/mL (≈ 1.11 µM) | – | – | – | – | – |
| CC(C)(O/N=C(\C(=O)N[C@@H]1C(=O)N2C(C(=O)[O-])=C(CSc3cc[n+](CC(=O)c4ccc(O)c(O)c4)cc3)CS[C@H]12)c1csc(N)n1)C(=O)O | ≤ 0.025 µg/mL | 3.13 µg/mL (≈ 4.29 µM) | 0.05 µg/mL (≈ 0.0686 µM) | 0.1 µg/mL (≈ 0.137 µM) | – | – | – | – | – |
| Nc1nc(/C(=N/OCC(=O)O)C(=O)N[C@@H]2C(=O)N3C(C(=O)[O-])=C(CSc4cc[n+](CC(=O)c5ccc(O)c(O)c5)cc4)CS[C@H]23)cs1 | ≤ 0.025 µg/mL | 3.13 µg/mL (≈ 4.47 µM) | 0.1 µg/mL (≈ 0.143 µM) | 0.05 µg/mL (≈ 0.0714 µM) | 1000000 cells mouse-1 | > 20 mg/kg | 0.1 µg/mL (≈ 0.143 µM) | – | – |
| CO/N=C(\C(=O)N[C@@H]1C(=O)N2C(C(=O)[O-])=C(CSc3cc[n+](CC(=O)c4ccc(O)c(O)c4)cc3)CS[C@H]12)c1csc(N)n1 | 0.05 µg/mL (≈ 0.0761 µM) | 0.78 µg/mL (≈ 1.19 µM) | 0.39 µg/mL (≈ 0.594 µM) | 0.1 µg/mL (≈ 0.152 µM) | – | – | – | – | – |
| CC(C)(O/N=C(\C(=O)N[C@@H]1C(=O)N2C(C(=O)[O-])=C(C[n+]3ccccc3)CS[C@H]12)c1csc(N)n1)C(=O)O [CEFTAZIDIME] | 0.78 µg/mL (≈ 1.43 µM) | 3.13 µg/mL (≈ 5.73 µM) | 1.56 µg/mL (≈ 2.85 µM) | 0.39 µg/mL (≈ 0.714 µM) | 1000000 cells mouse-1 | – | – | 34.4 mg/kg | 1.56 µg/mL (≈ 2.85 µM) |
